Results on six substances are retold here after patent publication US7829526B2, “Cardioinhibitory/antihypertensive novel endogenous physiologically active peptide” (Japan Science and Technology Agency, priority 2004, dated 2010).

Assay [1] can be described thus: Cardioinhibitory or hypotensive activity of deletion variants and homologue (method not described). Conditions: variants of SEQ ID No: 2.
A further assay has as its system intact-rats. As to the kind of experiment: Effect of synthesized peptide on intact anesthetized rats (blood pressure, heart rate, aortic flow). It is filed as in vivo, rat. To be noted: for hypotensive effect: anesthetized SD rats, synthetic peptide 10 nmol/kg intravenously. The protocol:
Meanwhile, a peptide of the present invention consisting of the amino acid sequence shown by SEQ ID No: 2 determined in Example 1, was synthesized with the use of a peptide synthesizer (Shimadzu, PSSM-8), and tested in the following experiment. SD rats weighing 400 to 525 g were used as test animals.
SD rats were anesthetized by intraperitoneal pentobarbital sodium (50 mg/kg), and a synthesized peptide was administered intravenously via a catheter placed in the […]. Heart rates and blood pressure were measured according to a method described previously (Nat Med 9: 1166-72, 2003) with the use of an electromagnetic flowmeter (MFV-1100, Nihon Koden). Further, a flowmeter was attached to the abdominal aorta, and aortic flow was measured according to the above method described previously. Synthetic peptides (10 nmol/kg) were administered intravenously over a period of 15 seconds or more, and systolic pressure (SP), diastolic pressure (DP) mean aortic pressure (MAP), heart rate (HR) were measured. A hypotensive effect of a synthetic peptide of the present invention was observed.

Assay [2] has as its system isolated, perfused rat hearts. As to the kind of experiment: Isolated heart working model (isolated perfused rat heart). To be noted: for cardiac contractility (inotropism): rat hearts, direct action on heart. How it is done:
Isolated heart working model was used for estimating direct effect on cardiac muscle, according to a method described previously (Nat Med 9:[…], 2003). A heart isolated from a rat was set on an isolated heart perfusion apparatus (Primetech Corporation, IPH-W2) which was perfused with a Krebs Henseleit Buffer at 37° C., and stabilized. Subsequently, synthetic peptides were administered (10^−8 mol/l). Then, HR, SP, DP, MAP and aortic flow (AF) were measured over a period of 15 min. Coronary flow (CF) was measured by collecting coronary sinus effluent before and at 5 and 10 min after administering the peptide agent. Based on the obtained data, cardiac output (CO) was calculated by adding AF and CF, whereas stroke volume (SV) was obtained by dividing CO by HR, and then normalized by the heart volume of each rat.

In assay [3] the test system is isolated rat aortic preparation. To be noted: intact and endothelium-detached preparations, unconstricted or constricted with phenylephrine; cited from earlier work.
Another assay relates to SD rats. To be noted: cited from earlier work; for hypotensive and bradycardiac effects: 1 min after intravenous administration, SD rats under pentobarbital anesthesia; for dose dependence of hypotensive and bradycardiac effects: salusin-α 1-10 nmol/kg, salusin-β 0.1-1 nmol/kg.
Setting [4] is: intravenous administration into anesthetized rats.

Turning to “(1-20): SEQ ID No: 2 wherein 4 amino acids at C-terminal end are deleted (AIFIFISNTGGKQINQVALE; listed as Homo sapiens)”, the “cardioinhibitory activity or hypotensive activity” value in assay [1] is “potent cardioinhibitory activity or hypotensive activity is maintained”.
On the same count and under the same terms, the same measure for “(2-13): SEQ ID No: 2 wherein 11 amino acids at C-terminal end and 1 amino acid at N-terminal end are deleted (IFIFISNTGGKQ; listed as Homo sapiens)”: “the activity is somewhat decreased”; for “(5-24): SEQ ID No: 2 wherein 4 amino acids at N terminal end are deleted (FISNTGGKQINQVALEAWRS; listed as Homo sapiens)”: “potent cardioinhibitory activity or hypotensive activity is maintained”.
On to “AIFIFISNTGGKQINQVALEAWRS (listed as Homo sapiens) [peptide of the present invention, human-derived 24 amino acid peptide translated from TOR2A mRNA]”, for which the hypotensive effect entry in the assay with intact-rats (FIG. 1, listed as This peptide) is “significant hypotensive activity”; in the assay on intact-rats (FIG. 1, listed as synthetic peptide of the present invention), “observed”. Moreover, in the assay on intact-rats (setting [4]), the aortic blood flow entry was “reduced”. In addition, the heart rates result with intact-rats (setting [4]) is “reduced”. Further, the aortic pressure entry in the assay with intact-rats (intravenous administration into anesthetized rats, FIG. 1) is on record as “marked lowering”. Moreover, in the assay on intact-rats (rank among endogenous peptides, FIG. 2), the “negative inotropic and chronotropic effects” value is listed as “most potent endogenous peptide identified thus far”. Further, the coronary flow entry in assay [2] (isolated rat heart, peptide 10^−8 mol/l, before and at 5 and 10 min, FIG. 2) is “lowering coronary flow”. Besides, the “cardiac contractility (inotropism)” value in assay [2] is recorded as “potently reduce cardiac contractility”; in assay [2] (listed as This peptide), “negative inotropism”.
Consider “salusin-α: related peptide of 28 amino acids biosynthesized by processing of preprosalusin (SGALPPAPAAPRPALRAQRAGPAGPGAK; salusin-alpha)”, for which, in assay [3], the “direct effect on isolated rat aorta” value is given as “did not show any direct effect”. In the assay with SD rats, the “hypotensive and bradycardiac effects” value was “rapid hypotensive and bradycardiac effects”; the “hypotensive effects after pretreatment with NO synthase inhibitor L-NAME” value is “not affected”; the “dose dependence of hypotensive and bradycardiac effects” value is “dose-responsive”.
For “salusin-β: related peptide of 20 amino acids biosynthesized by processing of preprosalusin (AIFIFIRWLLKLGHHGRAPP; salusin-beta)”, the “direct effect on isolated rat aorta” value in assay [3] is listed as “did not show any direct effect”. Besides, in the assay on SD rats, the “hypotensive and bradycardiac effects” value is “rapid hypotensive and bradycardiac effects”; the “hypotensive effects after pretreatment with NO synthase inhibitor L-NAME” value is listed as “not affected”; the “dose dependence of hypotensive and bradycardiac effects” value was “dose-responsive”. In addition, the “potency compared to salusin-α” value in the assay with SD rats (hypotensive and bradycardiac effects) is on record as “approximately 10 fold”.
